Source: patent publication US9416115B2, “Fused heterocyclic compounds as ion channel modulators” (Gilead Sciences, Inc., priority 2013, dated 2016)
Like-named read-outs stand apart in the source and are kept apart here.

Assays:
Type in all cases: cell-based
hNav1.1 (SCN1A) = hNav1.1 (SCN1A) (Homo sapiens, UniProt P35498); test: Use-dependent inhibition of the CNS Nav1.1 sodium channel; details: use-dependent block, 25 Hz, pulse 20, read-out: Nav1.1 UDB 25 Hz 10 uM
Method: HEK-293 cells stably expressing wild-type (WT) hNav1.1 (SCN1A, NCBI# AB09354) were obtained from Millipore (Cat. # CYL3009) were used to record INa. Cells are maintained with standard tissue culture procedures and stable channel expression is maintained with 400 ug/mL G418 in the culture medium. Unless otherwise noted, all reagents are purchased from Sigma-Aldrich (St Louis, Mo., U.S.A.).
Assays measuring Use-Dependent Block (UDB) of Nav1.2 are performed on an automated electrophysiology platform, QPatch 16X or QPatch HT (Sophion Bioscience, Copenhagen, Denmark), using the whole cell patch clamp technique to measure currents through the cell membrane. Series resistance compensation is set to 100% and series resistance and whole-cell compensation are performed automatically. Currents stored in the Sophion Bioscience Oracle database (Sophion Bioscience, Copenhagen, Denmark). Analysis is performed using QPatch Assay software and data are compiled in Excel 2010 (Microsoft, Seattle, Wash., U.S.A.).
The internal (pipette) solution consists of (in mM) 105 CsF, 10 NaF, 20 CsCl, 2 EGTA, 10 HEPES, 10 Dextrose with a pH of 7.35 and osmolarity of 300 mOsmol/kg. The external (bath) solution contains in (mM): 145 NaCl, 4 KCl, 1.8 CaCl2, 1 MgCl2, 10 dextrose, 10 HEPES, with a pH of 7.35 and osmolarity of 310 mOsmol/kg. Experiments are carried out at 23-25° C.
Compound stocks are routinely made by the Gilead Sample Bank in vials to 10 mM in dimethyl sulfoxide (DMSO). In some cases, when compounds are not soluble in DMSO, they are made in 100% ethanol. Stocks are sonicated as necessary. […]
Cells are allowed to stabilize for 10 min after establishment of the whole-cell configuration before current is measured. The test compound is applied 2 times at 60 second intervals. After the second compound addition, a 200 second wait period was imposed to allow for equilibration. Leak currents are subtracted by using an online P/4 procedure and all currents are low-pass Bessel filtered at 5 kHz and digitized at […].
Use-dependent block of Nav1.2 peak current is measured during pulse number 20 of a voltage pulse train (0 mV, 20 ms, 20 pulses, 25 Hz) from a holding potential of −120 mV. Currents are normalized to the peak current recorded in response to the first pulse in each frequency train. The voltage protocol for UDB was performed in the absence and presence of compound and percentage inhibition was calculated with respect to the compound free condition. Results are presented as mean percentage inhibition and data analysis is performed using QPatch Assay Software 4.0, and Excel 2002 (Microsoft, Seattle, Wash., U.S.A.).

[1] = target: T1, wild-type human cardiac sodium channel, hNav1.5 (Homo sapiens, UniProt Q14524); test: Peak INa screening assay (tonic block and use-dependent block)
T1 sequence (Q14524 whole entry): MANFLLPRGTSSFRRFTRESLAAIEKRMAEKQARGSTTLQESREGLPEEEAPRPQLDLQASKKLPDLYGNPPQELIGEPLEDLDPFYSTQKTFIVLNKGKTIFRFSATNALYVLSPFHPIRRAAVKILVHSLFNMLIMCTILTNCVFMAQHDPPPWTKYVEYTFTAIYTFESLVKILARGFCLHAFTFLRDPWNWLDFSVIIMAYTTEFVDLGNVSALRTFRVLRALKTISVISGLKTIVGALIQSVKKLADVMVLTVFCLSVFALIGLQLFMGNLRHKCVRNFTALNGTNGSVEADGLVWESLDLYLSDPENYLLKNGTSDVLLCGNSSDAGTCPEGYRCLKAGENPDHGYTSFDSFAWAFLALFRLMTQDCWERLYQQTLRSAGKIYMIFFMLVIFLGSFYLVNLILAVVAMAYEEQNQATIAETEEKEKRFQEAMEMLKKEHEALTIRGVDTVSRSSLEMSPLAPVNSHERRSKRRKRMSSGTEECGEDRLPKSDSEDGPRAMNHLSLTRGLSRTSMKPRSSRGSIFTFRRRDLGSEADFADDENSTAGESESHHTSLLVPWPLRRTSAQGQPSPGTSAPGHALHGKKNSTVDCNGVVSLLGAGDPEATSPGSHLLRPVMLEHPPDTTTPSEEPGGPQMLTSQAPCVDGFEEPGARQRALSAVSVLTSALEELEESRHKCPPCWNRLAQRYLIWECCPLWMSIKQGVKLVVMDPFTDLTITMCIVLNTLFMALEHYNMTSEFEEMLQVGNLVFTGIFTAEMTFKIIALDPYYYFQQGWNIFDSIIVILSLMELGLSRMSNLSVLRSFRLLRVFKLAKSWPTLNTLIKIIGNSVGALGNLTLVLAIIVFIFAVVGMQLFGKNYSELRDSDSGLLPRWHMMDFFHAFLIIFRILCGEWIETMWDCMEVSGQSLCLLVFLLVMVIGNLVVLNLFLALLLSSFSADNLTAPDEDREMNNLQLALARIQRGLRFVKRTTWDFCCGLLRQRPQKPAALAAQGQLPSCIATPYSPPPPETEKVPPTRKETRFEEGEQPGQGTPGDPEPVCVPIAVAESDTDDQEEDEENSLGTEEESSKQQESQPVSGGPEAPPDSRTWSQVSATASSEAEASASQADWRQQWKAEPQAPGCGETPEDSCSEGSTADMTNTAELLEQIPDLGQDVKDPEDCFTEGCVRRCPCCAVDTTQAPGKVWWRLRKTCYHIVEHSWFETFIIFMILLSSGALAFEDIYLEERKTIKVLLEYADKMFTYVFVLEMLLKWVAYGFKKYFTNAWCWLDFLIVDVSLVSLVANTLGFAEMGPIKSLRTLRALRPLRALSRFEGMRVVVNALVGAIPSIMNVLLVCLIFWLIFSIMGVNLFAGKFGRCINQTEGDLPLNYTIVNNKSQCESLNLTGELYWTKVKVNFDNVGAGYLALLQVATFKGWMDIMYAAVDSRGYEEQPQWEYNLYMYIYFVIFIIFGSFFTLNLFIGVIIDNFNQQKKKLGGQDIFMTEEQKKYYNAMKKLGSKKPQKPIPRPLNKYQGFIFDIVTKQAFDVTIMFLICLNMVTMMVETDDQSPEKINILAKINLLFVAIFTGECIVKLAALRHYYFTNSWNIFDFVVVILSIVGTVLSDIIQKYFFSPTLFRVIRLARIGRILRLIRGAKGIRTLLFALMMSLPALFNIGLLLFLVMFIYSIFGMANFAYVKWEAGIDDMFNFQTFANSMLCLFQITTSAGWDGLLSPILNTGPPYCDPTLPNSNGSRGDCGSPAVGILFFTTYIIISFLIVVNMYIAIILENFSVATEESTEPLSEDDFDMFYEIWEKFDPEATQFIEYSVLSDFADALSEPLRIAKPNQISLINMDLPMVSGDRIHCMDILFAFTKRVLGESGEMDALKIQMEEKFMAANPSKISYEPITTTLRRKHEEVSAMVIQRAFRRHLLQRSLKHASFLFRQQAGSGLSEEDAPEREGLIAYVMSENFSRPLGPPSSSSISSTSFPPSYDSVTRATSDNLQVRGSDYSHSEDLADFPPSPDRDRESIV
Method: (§1) The cardiac late sodium current (Late INa) and peak sodium current (Peak INa) assays are performed on an automated electrophysiology platform, QPatch 16X or QPatch HT (Sophion Bioscience, Copenhagen, Denmark) using the whole cell patch clamp technique to measure currents through the cell membrane. The assay uses an HEK293 (human embryonic kidney) cell line heterologously expressing the wild-type human cardiac sodium channel, hNav1.5, purchased from Millipore (Billerica, Mass.). No beta subunits were coexpressed with the Na channel alpha subunit. Cells are maintained with standard tissue culture procedures and stable channel expression is maintained with 400 μg/mL Geneticin in the culture medium. Experiments are carried out at 23-25° C.
(§2) For both the Late INa and Peak INa assays, series resistance compensation is set to 100% and series resistance and whole-cell compensation are performed automatically. Currents are digitized at 25 kHz and low-pass filtered at 5 kHz and stored in the Sophion Bioscience Oracle database (Sophion Bioscience, Copenhagen, Denmark). Analysis is performed using QPatch Assay software and data are compiled in Excel 2010 (Microsoft, Seattle, Wash., U.S.A.).
(§3) Compound stocks are routinely made by the Gilead Sample Bank in vials to 10 mM in dimethyl sulfoxide (DMSO). In some cases, when compounds are not soluble in DMSO, they are made in 100% ethanol. Stocks are sonicated as necessary. The extracellular solution for screening Late INa is composed of: 140 mM NaCl, 4 mM KCl, 1.8 mM CaCl2, 1 mM MgCl2, 10 mM HEPES and 10 mM Dextrose with pH adjusted to 7.35 using NaOH. The intracellular solution contains: 105 mM CsF, 20 mM CsCl, 10NaF, 2 mM EGTA, 10 mM HEPES and 10 mM Dextrose with pH adjusted to 7.35 with CsOH. Compounds are diluted in extracellular solution using a MicroLab Nimbus (Hamilton Robotics, Reno, Nev.) to between 0.3 and 3 μM in glass vials and transferred to glass well plates before robotic addition to the cells. The 0 mM Na extracellular solution (0Na-ECF) used at the end of each experiment for the Late INa and Peak INa assays to measure baseline current contains: 140 Choline-Cl; 4 mM KCl, 1.8 mM CaCl2; 1 mM MgCl2; 10 mM HEPES and 10 mM Dextrose with pH was adjusted to 7.35 with CsOH.
Compounds were evaluated for their effect Nav1.5 Peak INa. It is contemplated that the compounds of Formula I avoid significant block of peak INa. Since the peak INa in the cells used herein can be very large, introducing artifacts in the recording, the concentration of Na^+ in the bath can be reduced to 40 mM by isosmotic replacement of Na^+ with Choline (see below).
Tonic Block (TB) of Peak INa was measured using a voltage step to −20 mV from a holding potential of −100 mV at a low stimulation frequency of 0.1 Hz. Use-Dependent Block (UDB) of Peak INa was measured during pulse number 50 of a pulse train (−20 mV, 20 ms, 50 pulses, 3 Hz) from a holding potential of −100 mV.
The extracellular solution for screening Peak INa is composed of: 40 mM NaCl, 100 mM Choline-Cl, 4 mM KCl, 1.8 mM CaCl2, 1 mM MgCl2 10 mM HEPES and 10 mM Dextrose with pH adjusted to 7.35 using NaOH. The intracellular solution used for the Peak INa assay is the same as outlined for the Late INa assay (see above).
After establishing the whole cell recording configuration, channels were stimulated to open with low frequency (0.1 Hz) so that the recording can be monitored and the extent to which the recording has stabilized can be assessed.
The test compound is then applied at 1 or 3 μM and was added 2 times at 60 second intervals. After the second compound addition, a 200 second wait period was imposed to allow for equilibration. Voltage protocols for TB and UDB are were performed in the absence and presence of compound and TB and UDB are calculated with respect to the compound free condition. Both TB and UDB were analyzed by incorporating rundown correction for the peak INa.

[2] = target: T1, wild-type human cardiac sodium channel, hNav1.5; test: Late INa screening assay (QPatch whole cell patch clamp, Tefluthrin-induced late current); details: HEK293 hNav1.5, percent block of late INa
Method: as §1, §2, §3
For the Late INa assay, sodium channels are activated every 10 seconds (0.1 Hz) by depolarizing the cell membrane to −20 mV for 250 milliseconds (ms) from a holding potential of −120 mV.
Compounds were tested to determine their activity in blocking the late sodium current. Late INa was generated by adding 10 μM Tefluthrin (pyrethroid) to the extracellular solution. For the purposes of the screening, Late INa is defined as the mean current between […] during the voltage step to −20 mV. After establishing the whole cell recording configuration, Late INa activator is added to each well 4 times over a 15 minute period so that the late component of the Na current reaches a stable value. Compounds were then added (typically at 0.3 or 1 μM), in the presence of the Late Na^+ activator, with 3 additions over the course of 5 minutes. Measurements were made at the end of exposure to the third compound addition and values were normalized to the current level when all Na^+ was removed from the extracellular solution after two additions of 0Na-ECF.
Results are reported as percent block of late INa and results were analyzed by incorporating rundown correction for the Late INa.

[3] = tonic block of Peak INa, 0.1 Hz, holding -100 mV, read-out: Peak TB 3 uM
[4] = use-dependent block of Peak INa, 3 Hz, pulse 50, read-out: Peak UDB 3 Hz 3 uM

Row | Structure (SMILES) | inhibition at 10 µM (hNav1.1 (SCN1A)) [%] | inhibition at 3 µM [1, 3] [%] | inhibition at 3 µM [1, 4] [%] | inhibition at 1 µM [2] [%] | inhibition at 0.3 µM [2] [%]
1 | O=C1CC(COc2noc3ccc(-c4ccc(OC(F)(F)F)cc4)cc23)CN1 (stereo not drawn) [Example 46, 4-(((5-(4-(trifluoromethoxy)phenyl)benzo[d]isoxazol-3-yl)oxy)methyl)pyrrolidin-2-one] | 78.4 | 23.7 | 13.9 | 36.8 | –
2 | FC(F)(F)Oc1ccc(-c2ccc3onc(OCCn4ccnc4)c3c2)cc1 [Example 55, 3-(2-(1H-imidazol-1-yl)ethoxy)-5-(4-(trifluoromethoxy)phenyl)benzo[d]isoxazole] | 79.8 | 15.1 | 5.13 | 59.9 | 45.4
3 | CN1CC(COc2noc3ccc(-c4ccc(OC(F)(F)F)cc4)cc23)CC1=O (stereo not drawn) [Example 56, 1-methyl-4-(((5-(4-(trifluoromethoxy)phenyl)benzo[d]isoxazol-3-yl)oxy)methyl)pyrrolidin-2-one] | 83.6 | 30.4 | 31.4 | 57.8 | 16.1
4 | Cc1nccn1CCOc1noc2ccc(-c3ccc(OC(F)(F)F)cc3)cc12 [Example 57, 3-(2-(2-methyl-1H-imidazol-1-yl)ethoxy)-5-(4-(trifluoromethoxy)phenyl)benzo[d]isoxazole] | 82.5 | 22.1 | 37.1 | 57.3 | 17
5 | Cc1cc(-c2ccc(OC(F)(F)F)cc2)cc2c(OCCN3CCCC3=O)noc12 [Example 88, 1-(2-((7-methyl-5-(4-(trifluoromethoxy)phenyl)benzo[d]isoxazol-3-yl)oxy)ethyl)pyrrolidin-2-one] | 66.7 | 20.8 | 19.5 | 47.7 | –
6 | FC(F)(F)Oc1ccc(-c2ccc3onc(OC[C@@H]4CCCN4)c3c2)cc1 [Example 108, (S)-3-(pyrrolidin-2-ylmethoxy)-5-(4-(trifluoromethoxy)phenyl)benzo[d]isoxazole] | 89.2 | 62.6 | 69.3 | 83.5 | 30.1
7 | FC(F)(F)Oc1ccc(-c2ccc3onc(Oc4ccccn4)c3c2)cc1 [Example 125, 3-(pyridin-2-yloxy)-5-(4-(trifluoromethoxy)phenyl)benzo[d]isoxazole] | < 5 | – | – | 41.8 | –
8 | Cc1cccc(CNc2noc3ccc(-c4ccc(OC(F)(F)F)cc4)cc23)n1 [Example 129, N-((6-methylpyridin-2-yl)methyl)-5-(4-(trifluoromethoxy)phenyl)benzo[d]isoxazol-3-amine] | 33.5 | – | – | 67.5 | 34.3
